Results taken from US20250099383A1, “COMPOSITIONS AND METHODS FOR DELIVERY OF NUCLEIC ACIDS” (Poseida Therapeutics, Inc., priority 2022, published 2025).

What was measured:
liver cells [1] = experiment: In vivo LNP delivery of firefly luciferase mRNA to liver, bioluminescent imaging (BLI); set-up: species or system BALB/C mice; details: 0.5 mg/kg fLuciferase mRNA i.v., BLI at 4 hr; for Mean Liver Luciferase Flux (p/s): LNP compositions of Table 25, adult female BALB/C, n=3; for Ave flux (p/s) n = 3: adult female BALB/C mice, LNP as in Example 66
Procedure: Adult female BALB/C mice (n=3/group) were intravenously administered 0.5 mg/kg of 5′-CleanCap-fLuciferase mRNA (TriLink Biotech) formulated with LNP compositions as described in Example 66. One group of mice was treated with vehicle (PBS, Thermo Fisher Scientific, USA) as a negative control.
(§1) The location and extent of luciferase expression in treated and control mice were determined at 4 hr by bioluminescent imaging (BLI) of anesthetized mice using an IVIS Lumina in vivo imaging system (Perkin Elmer) according to the manufacturer's instructions. Briefly, mice were anesthetized using isoflurane in oxygen, and placed supine on a heated stage. Mice were then administered D-luciferin (Perkin-Elmer #122799) IP, and BLI was performed.
Adult female BALB/C mice (n=3/group) were intravenously administered 0.5 mg/kg of 5′-CleanCap-fLuciferase mRNA (TriLink Biotech) formulated with the LNP compositions shown in Table 25. One group of mice was treated with vehicle (PBS, Thermo Fisher Scientific, USA) as a negative control. […]

[2] = Body weight change of mice after LNP administration; assay type: in vivo, BALB/C mice; details: for Ave weight change (gram) n = 3: 24 hrs after 0.5 mg/kg LNP encapsulating firefly luciferase mRNA, adult female BALB/C mice; for % Body Weight Change 24 hr: LNP compositions of Table 25, 0.5 mg/kg fLuciferase mRNA i.v., 24 hr post-administration vs baseline
Procedure: The mice above were also monitored for changes in body weight after LNP delivery. Mice were manually weighed on a scale before LNP dosage and then weighed 24 hrs after administration of 0.5 mg/kg of LNP article encapsulating Cleancap firefly luciferase mRNA. The average of weight change n=3 is reported below.
In addition, the body weight of mice treated with the LNP compositions of Table 25 was assessed prior to intravenous administration and twenty-four hours post-administration and the body weights at baseline and post-treatment were compared. The average percentage of body weight change for each group of mice treated with each LNP composition of Table 25 is shown in Table 28. […]

[3] = Physical characteristics of LNPs (particle size, PDI); assay type: physicochemical; details: for PDI DNA / Particle Size (nm) DNA: LNP with Fluc DNA, compound/DOPE/Cholesterol/DMG-PEG2000 38/50/10.0/2.0, Lipid:DNA 45:1 (w/w); for PDI RNA / Particle Size (nm) RNA: LNP with Fluc mRNA, compound/DOPE/Cholesterol/DMG-PEG2000 41.44/45.85/10/2.7, Lipid:RNA 40:1 (w/w)
Procedure: LNP compositions of the present disclosure comprising exemplary compounds of Formula (I) were prepared by combining various percentages of an exemplary compound of Formula (I), the phospholipid DOPE, the structural lipid cholesterol (Chol) and 1,2-dimyristoyl-sn-glycerol methoxypolyethylene glycol (DMG-PEG2000; Avanti Polar Lipids, Alabaster, Alabama, USA).
Individual 25 mg/ml stock solutions were prepared by solubilizing the lipids in 200-proof HPLC-grade ethanol and stock solutions were stored at −80° C. until formulated. At the time of formulation, the lipid stock solutions were briefly allowed to equilibrate to room temp and then placed on a hot plate maintained at a temperature range of 50-55° C.
A 1 mg/ml solution of the desired mRNA or DNA to be incorporated into the LNPs was added to 150 mM sodium acetate buffer (pH 5.2) to form a stock solution and kept on ice. The aqueous mRNA or DNA was then added to the lipids as shown in Table 4 or 5 and hand-mixed vigorously with a single channel pipettor.
The resultant mRNA or DNA LNP compositions were then transferred to a Repligen Float-A-Lyzer dialysis device-having a molecular weight cut off (MWCO) of 8-10 kDa (Spectrum Chemical Mfg. Corp, CA, USA) and processed by dialysis against phosphate buffered saline (PBS) (dialysate: dialysis buffer volume at least 1:200 v/v), pH 7.4 overnight at 4° C. (or alternatively room temperature for at least 4 hours), to remove the 25% ethanol and achieve a complete buffer exchange. In some experiments the LNPs were further concentrated by in an Amicon® Ultra-4 centrifugal filter unit, MWCO-30 kDa (Millipore Sigma, USA) spun at ˜4100 x g in an ultracentrifuge. The mRNA and DNA LNPs were then stored at 4° C. until further use.
LNP compositions of the present disclosure comprising mRNA or DNA encoding firefly luciferase (hereafter “Fluc”; TriLink) and COMPOUNDS 5-49 were prepared as described in Example 61 by combining one of COMPOUNDS 5-49, the phospholipid DOPE, the structural lipid cholesterol (Chol) and 1,2-dimyristoyl-sn-glycerol methoxypolyethylene glycol (DMG-PEG2000) in the percentages presented in Tables 6 and 7:
The physical characteristics of the resulting LNPs were analyzed.
A 1 mg/ml solution of the 5′-CleanCap--fLuciferase mRNA (TriLink Biotech) to be incorporated into the LNPs was added to 150 mM sodium acetate buffer (pH 5.2) to form a stock solution and kept on ice. The lipid phase was mixed with the aqueous mRNA phase inside a microfluidic chip using a NanoAssemblr® instrument (Precision Nanosystems, Vancouver, BC, Canada) according to the manufacturer's instructions to form LNP compositions comprising encapsulated mRNAs.
The average particle size diameter of the LNPs was approximately 75-150 nm.

liver cells [4] = experiment: In vivo LNP delivery of nanoplasmid CMV-firefly luciferase DNA to liver of juvenile mice, BLI; details: juvenile female BALB/C mice age 14 days; 0.25 mg/kg nanoplasmid CMV-firefly luciferase retroorbital i.v.; BLI at 4 hr
Procedure: Juvenile female BALB/C mice of age 14 days (n=4/group) were retroorbitally intravenously administered 0.25 mg/kg of nanoplasmid CMV-firefly luciferase (Nature Technology Corp) formulated with LNP compositions as described in Example 66. One group of mice was treated with vehicle (PBS, Thermo Fisher Scientific, USA) as a negative control.
as §1

SMILES | Mean Liver Luciferase Flux (p/s) (liver cells [1]) | Ave flux (p/s) n = 3 (liver cells [1]) [p/s] | Ave weight change (gram) n = 3 [2] [gram] | % Body Weight Change 24 hr [2] | PDI DNA [3] | Particle Size (nm) DNA [3] [nm] | PDI RNA [3] | Particle Size (nm) RNA [3] [nm] | Ave flux (p/s) n = 4 (liver cells [4]) [p/s]
CC(C)=CCC/C(C)=C/CCC1=CCC(C(=O)OCCOC(=O)CCN(CCCN2CCN(CCCN(CCC(=O)OCCOC(=O)C3CC=C(CC/C=C(\C)CCC=C(C)C)CC3)CCC(=O)OCCOC(=O)C3CC=C(CC/C=C(\C)CCC=C(C)C)CC3)CC2)CCC(=O)OCCOC(=O)C2CC=C(CC/C=C(\C)CCC=C(C)C)CC2)CC1 (stereo not drawn) [Compound 9, ((3,3′,3″,3′″-((piperazine-1,4-diylbis(propane-3,1-diyl))bis(azanetriyl))tetrakis(propanoyl))tetrakis(oxy))tetrakis(ethane-2,1-diyl)tetrakis(4-((E)-4,8-dimethylnona-3,7-dien-1-yl)cyclohex-3-enecarboxylate)] | 4.62e10 | 1.77E+10 | −3.03 | +1.4% | 0.123 | 330.9 | 0.129 | 314.0 | –
CC(C)CCCC(C)CCCC1CCC(C(=O)OCCOC(=O)CCN(CCCN2CCN(CCCN(CCC(=O)OCCOC(=O)C3CCC(CCCC(C)CCCC(C)C)CC3)CCC(=O)OCCOC(=O)C3CCC(CCCC(C)CCCC(C)C)CC3)CC2)CCC(=O)OCCOC(=O)C2CCC(CCCC(C)CCCC(C)C)CC2)CC1 (stereo not drawn) [Compound 16, ((3,3′,3″,3″-((piperazine-1,4-diylbis(propane-3,1-diyl))bis(azanetriyl))tetrakis(propanoyl))tetrakis(oxy))tetrakis(ethane-2,1-diyl)tetrakis(4-(4,8-dimethylnonyl)cyclohexanecarboxylate)] | – | 3.67E+10 | −3.60 | – | 0.108 | 326.3 | 0.142 | 354.0 | 8905000000
CC(C)CCCC(C)CCCC1CCC(C(=O)OCCOC(=O)CCN(CCCN(C)CCCN(CCC(=O)OCCOC(=O)C2CCC(CCCC(C)CCCC(C)C)CC2)CCC(=O)OCCOC(=O)C2CCC(CCCC(C)CCCC(C)C)CC2)CCC(=O)OCCOC(=O)C2CCC(CCCC(C)CCCC(C)C)CC2)CC1 (stereo not drawn) [Compound 17] | – | 2.96E+10 | −3.10 | – | 0.129 | 287.7 | 0.145 | 293.3 | –
CC(C)=CCCC1=CCC(C(=O)OCCOC(=O)CCN(CCCN(C)C)CCC(=O)OCCOC(=O)C2CC=C(CCC=C(C)C)CC2)CC1 (stereo not drawn) [Compound 19, ((3,3′-((3-(dimethylamino)propyl)azanediyl)bis(propanoyl))bis(oxy))bis(ethane-2,1-diyl)bis(4-(4-methylpent-3-en-1-yl)cyclohex-3-enecarboxylate)] | – | 1.10E+06 | 0.70 | – | 0.131 | 213.9 | 0.133 | 220.1 | –
CC(C)=CCCC1=CCC(C(=O)OCCOC(=O)CCN(CCCN2CCN(CCCN(CCC(=O)OCCOC(=O)C3CC=C(CCC=C(C)C)CC3)CCC(=O)OCCOC(=O)C3CC=C(CCC=C(C)C)CC3)CC2)CCC(=O)OCCOC(=O)C2CC=C(CCC=C(C)C)CC2)CC1 (stereo not drawn) [Compound 22] | 1.84e10 | 9.27E+09 | −6.40 | +1.2% | 0.141 | 255.5 | 0.176 | 330.9 | –
CC(C)=CCCC1=CCC(C(=O)OCCOC(=O)CCN(CCCN(C)CCCN(CCC(=O)OCCOC(=O)C2CC=C(CCC=C(C)C)CC2)CCC(=O)OCCOC(=O)C2CC=C(CCC=C(C)C)CC2)CCC(=O)OCCOC(=O)C2CC=C(CCC=C(C)C)CC2)CC1 (stereo not drawn) [Compound 23] | – | 6.24E+09 | −5.97 | – | 0.189 | 332.8 | 0.184 | 434.4 | 3012500000
CC(C)CCCC1CCC(C(=O)OCCOC(=O)CCN(CCCN2CCN(CCCN(CCC(=O)OCCOC(=O)C3CCC(CCCC(C)C)CC3)CCC(=O)OCCOC(=O)C3CCC(CCCC(C)C)CC3)CC2)CCC(=O)OCCOC(=O)C2CCC(CCCC(C)C)CC2)CC1 (stereo not drawn) [Compound 29] | 3.02e10 | 2.44E+10 | −6.07 | −2.4% | 0.081 | 317.2 | 0.197 | 422.3 | 9120000000
CC(C)CCCC1CCC(C(=O)OCCOC(=O)CCN(CCC(=O)OCCOC(=O)C2CCC(CCCC(C)C)CC2)CCN(CCN(CCC(=O)OCCOC(=O)C2CCC(CCCC(C)C)CC2)CCC(=O)OCCOC(=O)C2CCC(CCCC(C)C)CC2)CCN(CCC(=O)OCCOC(=O)C2CCC(CCCC(C)C)CC2)CCC(=O)OCCOC(=O)C2CCC(CCCC(C)C)CC2)CC1 (stereo not drawn) [Compound 31] | – | 2.24E+09 | −4.10 | – | 0.063 | 267.9 | 0.145 | 339.9 | –
